We go through two compounds from patent US11607378B2, “Cosmetic composition comprising amide-based compound” (Neopharm Co., Ltd., priority 2020, dated 2023).

The test system of assay [1] is reactive oxygen species (ROS) in dermal fibroblasts. In words: Effect of removing reactive oxygen species (ROS), DCF-DA fluorescence image. In kind it is cell-based, human. The following applies: blue light 40 J/cm^2, sample 100 μM, 24 hours, DCF-DA (FIG. 2). As for the experimental part: An effect of removing the reactive oxygen species was determined for the samples of Examples and Comparative Examples of the present invention.
An image analysis for generation of reactive oxygen species (ROS) in the cells was carried out by seeding 1×10^5 (100 μL/well) dermal fibroblasts in a 12-well plate to which a cover slip was attached. The dermal fibroblasts were exposed to blue light of 40 J/cm^2, and then treated with each of the samples (100 μM) of Examples and Comparative Examples. Then, the cells were additionally cultured at 37° C. for 24 hours.
After 24 hours, 100 μM DCF-DA was put into each well, and the cells were cultured at 37° C. for 45 minutes. After the cells were washed with PBS, the stained cells were put on a microscope slide containing a mounting medium. A microscopic image was observed as a fluorescent microscopic image.

Assay [2] concerns p16^INK4A. As to the kind of experiment: Expression level of p16^INK4A by Western blot after blue light. Type of assay: cell-based. The following applies: human dermal fibroblasts, blue light 40 J/cm^2, sample 100 μM, 24 hours, Western blot (FIG. 1). As for the experimental part: (1) An expression level of p16^INK4A was determined through Western blot in Examples and Comparative Examples of the present invention.
Specifically, human dermal fibroblasts were cultured in a 12-well plate containing a Dulbecco's modified eagle medium (DMEM) medium supplemented with 10% fetal bovine serum (FBS) to attach 1.5×10^5 (1 mL/well) human dermal fibroblasts to the 12-well plate. The human dermal fibroblasts were cultured for 24 hours, and the medium was replaced with a 1% fetal bovine serum medium. Then, the human dermal fibroblasts were exposed to blue light of 40 J/cm^2, and then treated with each of the samples (100 μM) of Examples and Comparative Examples. Thereafter, the cells were additionally cultured at 37° C. for 24 hours. Then, the cells were recovered, and each of these samples was subjected to Western blot to analyze an expression level of p16^INK4A in the dermal fibroblasts. Each of samples of Examples 1 and 2 and Comparative Example 1 including the amide-based compound having a structure shown in the following Table 1 was used as the sample.
The control of FIG. 1 represents an experimental group in which the cells were not treated with the sample, and (-) represents a result of the experimental group exposed to blue light.

Assay [3] deals with carbonylated protein in artificial skin (EpiDermFT). As to the kind of experiment: Effect on generation of carbonylated protein in artificial skin (DNPH assay, ICC staining). Type of assay: cell-based. As to conditions: sample 0.3% 50 μL, blue light 40 J/cm^2, 48 hours, image J quantification (FIG. 4). Here is the method: An artificial skin (EpiDermFT™ from MatTek, Ashland, USA) was purchased, and then stabilized for 18 hours in an exclusive medium (EFT-400). 50 μL of each of the samples of Examples and Comparative Examples was applied to the artificial skin at a concentration of 0.3%, and then cultured for an hour. The artificial skin was exposed to blue light of 40 J/cm^2. After 48 hours, the artificial skin tissue was fixed in 10% formaldehyde, and embedded into paraffin. Thereafter, the tissue was microtomed into sections with a size of […]. Then, the microtomed tissue was used to confirm an effect on a change in activity of the carbonylated protein.
The tissue was stained by a DNPH assay using an immunocytochemical (ICC) staining method, and then observed in a fluorescent microscopic image. Thereafter, the microscopic image was digitized using an image J program.

Assay [4] has as its system superoxide dismutase (SOD). As to the kind of experiment: Effect on antioxidant activity (Superoxide Dismutase Activity Assay kit) after blue light. In kind it is cell-based, human. As to conditions: dermal fibroblasts, blue light 40 J/cm^2, sample 100 μM, 48 hours (FIG. 3). Here is the method: Effects of the samples of Examples and Comparative Examples of the present invention on a change in antioxidant activity after irradiation with blue light were confirmed.
Specifically, 1.5×10^5 (1 mL/well) dermal fibroblasts were seeded in a 6-well plate, and cultured for 24 hours. The dermal fibroblasts were exposed to blue light of 40 J/cm^2, and then treated with each of the samples (100 μM) of Examples and Comparative Examples. After 48 hours, the cells were recovered. The cells were dissolved in a cell lysis buffer (pH 7.4) containing 0.1 M Tris/HCl, 0.5% Triton X-100, 5 mM β-ME, and 0.1 mg/ml PMSF, and a supernatant separated by centrifugation was then analyzed using a Superoxide Dismutase Activity Assay kit (ab65354). Then, the absorbance was measured at a wavelength of 450 nm in a microplate reader.

SMILES strings stand for the structures.

Regarding `CCCCC(CC)C(=O)NC(CO)CO` (centres unmarked) [Comparative Example 1, N-(1,3-dihydroxypropan-2-yl)-2-ethylhexanamide, reference compound], in assay [1], the “inhibiting the generation of reactive oxygen species and removing the generated reactive oxygen species” value is recorded as “did not exhibit a significant effect”. In assay [2], the “expression level of p16^INK4A” value came to 120%.

For `CCCCC(C)C(=O)NCCO` (centres unmarked) [Example 2, N-(2-hydroxyethyl)-2-methyl-hexanamide], the “carbonylated protein (which had increased by 72.04% by blue light)” value in assay [3] amounted to 16.67%. In assay [4], the “SOD activity (which had been reduced by 32.64% by blue light)” value was found to be 92.3%. The “expression level of p16^INK4A” value in assay [2] is on record as 53.9%.
